# Experimental data as given in patent publication US11192900B2, “Substituted 1,6-dihydropyridinones and 1,2-dihydroisoquinolinones as bet inhibitors” (NUVATION BIO INC., priority 2018, dated 2021).
# Molecular target: BRD4-2 (Homo sapiens (Human), UniProt O60885)
# Experiment: Bromodomain and Extraterminal Domain (BET) Binding Assay
# Conditions: Table 3; read-out: BRD4-2 IC50
# Description: The bromodomain binding assays were performed by Reaction Biology Corp., Malvern, Pa., USA (www.reactionbiology.com). The BET binding assays were conducted in 384 well microplates in assay buffer (50 mM HEPES-HCl, pH 7.5, 100 mM NaCl, 1 mg/ml BSA, 0.05% CHAPS, and 0.5% DMSO) with compounds added as DMSO stocks at a single concentration or with 10-point dose response titrations. BET protein or assay buffer were delivered to the appropriate wells of the microplate. Test compound was then delivered by acoustic technology via a Labcyte Echo550 liquid handler. The microplate was centrifuged for 5 min and pre-incubated for 30 min at RT with gentle shaking. The ligand (histone H4 peptide (1-21) K5/8/12/16Ac-biotin) was delivered and the microplate was again centrifuged for 5 min and allowed to incubate for 30 min at RT with gentle shaking. Donor beads were then added in the absence of light and the microplate was centrifuged and gently shaken. After 5 min, acceptor beads were added in the absence of light and the microplate was centrifuged and gently shakenin the dark for 60 min. The microplate was read using a Perkin Elmer EnSpire Alpha plate reader (λEx/λEm=680/520-620 nm). Percent inhibition was calculated relative to positive and negative controls on a per plate basis. For titration experiments, IC50 values were determined by fitting the percent inhibition versus compound concentration.
row,Structure (SMILES),IC50 [nM]
1,"C=CC(=O)n1cc(-c2cc(NS(=O)(=O)CC)ccc2Oc2ccc(F)cc2F)c2ccccc2c1=O [Compound 662, N-(3-(2-acryloyl-1-oxo-1,2-dihydroisoquinolin-4-yl)-4-(2,4-difluorophenoxy)phenyl)ethanesulfonamide]",> 10000
2,"C=CS(=O)(=O)Nc1ccc(Oc2ccc(F)cc2)c(-c2cc(NC)c(=O)n(C)c2)c1 [Compound 7, N-(4-(4-fluorophenoxy)-3-(1-methyl-5-(methylamino)-6-oxo-1,6-dihydropyridin-3-yl)phenyl)ethenesulfonamide]",24
3,"C#CC(=O)Nc1ccc(Oc2ccc(F)cc2F)c(-c2cn(C)c(=O)c3ccccc23)c1 [Compound 74, N-(4-(2,4-difluorophenoxy)-3-(2-methyl-1-oxo-1,2-dihydroisoquinolin-4-yl)phenyl)propiolamide]",239
4,"C=CS(=O)(=O)N(C)c1ccc(Oc2ccc(F)cc2F)c(-c2cc(NC)c(=O)n(C)c2)c1 [Compound 15, N-(4-(2,4-difluorophenoxy)-3-(1-methyl-5-(methylamino)-6-oxo-1,6-dihydropyridin-3-yl)phenyl)-N-methylethenesulfonamide]",34
5,"C=CC(=O)Nc1ccc(OC(C)C)c(-c2cc(NC)c(=O)n(C)c2)c1 [Compound 24, N-(4-isopropoxy-3-(1-methyl-5-(methylamino)-6-oxo-1,6-dihydropyridin-3-yl)phenyl)acrylamide]",779
6,"C=CC(=O)Nc1ccc(Oc2ccc(F)cc2F)c(-c2nn(C)c(=O)cc2OC)c1 [Compound 403, N-(4-(2,4-difluorophenoxy)-3-(4-methoxy-1-methyl-6-oxo-1,6-dihydropyridazin-3-yl)phenyl)acrylamide]",206
7,"C=CC(=O)Nc1ccc(Oc2ccc(C)cc2)c(-c2cc(NC)c(=O)n(C)c2)c1 [Compound 6, N-(3-(1-methyl-5-(methylamino)-6-oxo-1,6-dihydropyridin-3-yl)-4-(p-tolyloxy)phenyl)acrylamide]",120
8,"C=CS(=O)(=O)Nc1ccc(Oc2ccc(F)cc2)c(-c2cn(C)c(=O)c3ccccc23)c1 [Compound 11, N-(4-(4-fluorophenoxy)-3-(2-methyl-1-oxo-1,2-dihydroisoquinolin-4-yl)phenyl)ethenesulfonamide]",14
9,"C=CS(=O)(=O)Nc1ccc(Oc2ccc(F)cc2F)c(-c2cnc(=O)n(C)c2)c1 [Compound 19, N-(4-(2,4-difluorophenoxy)-3-(1-methyl-2-oxo-1,2-dihydropyrimidin-5-yl)phenyl)ethenesulfonamide]",1450
10,"C=CS(=O)(=O)Nc1ccc(Oc2ccc(C)cc2)c(-c2cc(NC)c(=O)n(C)c2)c1 [Compound 4, N-(3-(1-methyl-5-(methylamino)-6-oxo-1,6-dihydropyridin-3-yl)-4-(p-tolyloxy)phenyl)ethenesulfonamide]",22
11,"C=CC(=O)Nc1ccc(Oc2ccc(Cl)c(F)c2)c(-c2cn(C)c(=O)c3ccccc23)c1 [Compound 32, N-(4-(4-chloro-3-fluorophenoxy)-3-(2-methyl-1-oxo-1,2-dihydroisoquinolin-4-yl)phenyl)acrylamide]",717
12,"C=CC(=O)Nc1ccc(Oc2ccc(F)cc2)c(-c2cn(C(C)C)c(=O)c3ccccc23)c1 [Compound 28, N-(4-(4-fluorophenoxy)-3-(2-isopropyl-1-oxo-1,2-dihydroisoquinolin-4-yl)phenyl)acrylamide]",17900
13,"C=CS(=O)(=O)Nc1ccc(Oc2ccc(F)cc2F)c(-c2cn(C)c(=O)c3c2CCNC3)c1 [Compound 14, N-(4-(2,4-difluorophenoxy)-3-(2-methyl-1-oxo-1,2,5,6,7,8-hexahydro-2,7-naphthyridin-4-yl)phenyl)ethenesulfonamide]",> 10000
14,"C=CC(=O)Nc1ccc(N(C)c2ccc(F)cc2F)c(-c2cn(C)c(=O)c3sc(C(=O)NCC)cc23)c1 [Compound 612, 4-(5-acrylamido-2-((2,4-difluorophenyl)(methyl)amino)phenyl)-N-ethyl-6-methyl-7-oxo-6,7-dihydrothieno[2,3-c]pyridine-2-carboxamide]",> 10000
15,"C=CS(=O)(=O)Nc1ccc(Nc2ccc(F)cc2F)c(-c2cc(NC)c(=O)n(C)c2)c1 [Compound 21, N-(4-(2,4-difluorophenylamino)-3-(1-methyl-5-(methylamino)-6-oxo-1,6-dihydropyridin-3-yl)phenyl)ethenesulfonamide]",11
16,"C=CC(=O)Nc1ccc(Oc2ccc(F)cc2F)c(-c2cn(C)c(=O)c3ccccc23)c1 [Compound 9, N-(4-(2,4-difluorophenoxy)-3-(2-methyl-1-oxo-1,2-dihydroisoquinolin-4-yl)phenyl)acrylamide]",319
17,"C=CC(=O)Nc1ccc(Nc2ccc(F)cc2F)c(-c2cc(NC)c(=O)n(C)c2)c1 [Compound 288, N-(4-(2,4-difluorophenylamino)-3-(1-methyl-5-(methylamino)-6-oxo-1,6-dihydropyridin-3-yl)phenyl)acrylamide]",889

row,Structure (SMILES),IC50 [nM]
1,"C=CC(=O)N(C)c1ccc(Oc2ccc(F)cc2F)c(-c2cn(C)c(=O)c3ccccc23)c1 [Compound 396, N-(4-(2,4-difluorophenoxy)-3-(2-methyl-1-oxo-1,2-dihydroisoquinolin-4-yl)phenyl)-N-methylacrylamide]",298
2,"C=CC(=O)Nc1ccc(Nc2ccc(C)cc2)c(-c2cn(C)c(=O)c3ccccc23)c1 [Compound 309, N-(3-(2-methyl-1-oxo-1,2-dihydroisoquinolin-4-yl)-4-(p-tolylamino)phenyl) acrylamide]",2120
3,"C=CC(=O)Nc1ccc(Oc2ccc(Cl)cc2)c(-c2cn(C)c(=O)c3ccccc23)c1 [Compound 31, N-(4-(4-chlorophenoxy)-3-(2-methyl-1-oxo-1,2-dihydroisoquinolin-4-yl)phenyl)acrylamide]",413
4,"C=CC(=O)Nc1cccc(Oc2ccc(F)cc2)c1-c1cc(NC)c(=O)n(C)c1 [Compound 23, N-(3-(4-fluorophenoxy)-2-(1-methyl-5-(methylamino)-6-oxo-1,6-dihydropyridin-3-yl)phenyl)acrylamide]",> 10000
5,"C=CS(=O)(=O)Nc1ccc(Oc2ccc(F)cc2F)c(-c2cn(C)c(=O)c3ccccc23)c1 [Compound 10, N-(4-(2,4-difluorophenoxy)-3-(2-methyl-1-oxo-1,2-dihydroisoquinolin-4-yl)phenyl)ethenesulfonamide]",56
6,"CC#CC(=O)Nc1ccc(Oc2ccc(F)cc2F)c(-c2cn(C)c(=O)c3ccccc23)c1 [Compound 393, N-(4-(2,4-difluorophenoxy)-3-(2-methyl-1-oxo-1,2-dihydroisoquinolin-4-yl)phenyl)but-2-ynamide]",261
7,"C=CC(=O)Nc1ccc(Nc2c(F)cccc2F)c(-c2cn(C)c(=O)c3ccccc23)c1 [Compound 319, N-(4-(2,6-difluorophenylamino)-3-(2-methyl-1-oxo-1,2-dihydroisoquinolin-4-yl)phenyl)acrylamide]",1800
8,"C=CS(=O)(=O)Nc1ccc(Oc2ccc(F)cc2F)c(-c2c[nH]c(=O)c3ccccc23)c1 [Compound 18, N-(4-(2,4-difluorophenoxy)-3-(1-oxo-1,2-dihydroisoquinolin-4-yl)phenyl)ethenesulfonamide]",> 10000
9,"C=CS(=O)(=O)Nc1ccc(Oc2ccc(C)cc2)c(-c2cn(C)c(=O)c3ccccc23)c1 [Compound 13, N-(3-(2-methyl-1-oxo-1,2-dihydroisoquinolin-4-yl)-4-(p-tolyloxy)phenyl)ethenesulfonamide]",24
10,"C=CS(=O)(=O)Nc1ccc(Oc2ccc(OC)cc2)c(-c2cc(NC)c(=O)n(C)c2)c1 [Compound 8, N-(4-(4-methoxyphenoxy)-3-(1-methyl-5-(methylamino)-6-oxo-1,6-dihydropyridin-3-yl)phenyl)ethenesulfonamide]",17
11,"C=CC(=O)Nc1ccc(Oc2ccc(F)cc2)c(-c2cn(C)c(=O)c3ccccc23)c1 [Compound 26, N-(4-(4-fluorophenoxy)-3-(2-methyl-1-oxo-1,2-dihydroisoquinolin-4-yl)phenyl)acrylamide]",281
12,"C=CC(=O)Nc1ccc(OC(F)(F)F)c(-c2cn(C)c(=O)c3ccccc23)c1 [Compound 27, N-(3-(2-methyl-1-oxo-1,2-dihydroisoquinolin-4-yl)-4-(trifluoromethoxy)phenyl)acrylamide]",3250
13,"C=CC(=O)Nc1ccc(Oc2ccc(OC)cc2)c(-c2cc(NC)c(=O)n(C)c2)c1 [Compound 5, N-(4-(4-methoxyphenoxy)-3-(1-methyl-5-(methylamino)-6-oxo-1,6-dihydropyridin-3-yl)phenyl)acrylamide]",142
14,"C=CS(=O)(=O)Nc1ccc(OC)c(-c2cc(NC)c(=O)n(C)c2)c1 [Compound 20, N-(4-methoxy-3-(1-methyl-5-(methylamino)-6-oxo-1,6-dihydropyridin-3-yl)phenyl)ethenesulfonamide]",3860
15,"C=CC(=O)Nc1ccc(Oc2ccc(F)cc2F)c(-c2cn(C)c(=O)c3c2OCC(=O)N3)c1 [Compound 404, N-(4-(2,4-difluorophenoxy)-3-(6-methyl-3,5-dioxo-3,4,5,6-tetrahydro-2H-pyrido[4,3-b][1,4]oxazin-8-yl)phenyl)acrylamide]",1830
16,"C=CC(=O)N(C)c1ccc(Oc2ccc(F)cc2F)c(-c2cc(NC)c(=O)n(C)c2)c1 [Compound 394, N-(4-(2,4-difluorophenoxy)-3-(1-methyl-5-(methylamino)-6-oxo-1,6-dihydropyridin-3-yl)phenyl)-N-methylacrylamide]",134
